# Test system: Xenopus laevis embryos
# Test: Embryonic morphology after PMA treatment
# Type: in vivo
# Method: Embryos were sorted for successful cleavage to 2 cells (1.5 hours after fertilization), split into groups for subsequent treatment (triplicate treatments per each experimental group) and visually monitored for normal embryonic morphology. Rates of abnormal morphology were recorded for each group. Embryos at stage 8 were obtained after incubation of the fertilized embryos at 23° C. for 5 hours. PMA (100 ng/ml) or DMSO (0.01%, solvent used to dissolve PMA) was added to the embryos 2 hours after fertilization. […] Embryos at stage 15 were obtained after incubation of the fertilized embryos at 18° C. for 30 hours (the condition produced stage 15 embryos identical to embryos obtained at 23° C. for 10 hours). PMA or DMSO was added to the embryos 21 hours after fertilization.
smiles,measurement,setting,value
"CCCCCCCCCCCCCC(=O)O[C@@H]1[C@@H](C)[C@@]2(O)[C@@H](C=C(CO)C[C@]3(O)C(=O)C(C)=C[C@@H]23)[C@@H]2C(C)(C)[C@]12OC(C)=O [PMA, phorbol 12-myristate 12-acetate]",embryo morphology / developmental stage reached,"100 ng/ml added 2 hours after fertilization, 23° C. for 5 hours, untreated progressed to blastula",remained in a pre-blastula stage
same,embryo morphology / developmental stage reached,"added 21 hours after fertilization, 18° C. for 30 hours, untreated showed typical neurula",in a pre-neurula stage
